The record followed here is patent US11738099B2, “Molecular probes and methods of use” (CASE WESTERN RESERVE UNIVERSITY, priority 2014, dated 2023).

Data set [1] can be described thus: In vivo transmetallation and urinary excretion. The arrangement: species or system mouse. As to conditions: 0.1 mmol-Gd/kg. As to the method:
Balb/c mice (Charles River Laboratories, Wilmington, Mass., USA) were randomly divided into groups of ZD2-Gd(HP-DO3A) and ProHance (n=5) and placed in the metabolism cages, 48 hours prior to injection. […] Urine samples were collected at 12 h pre-injection, and then 8, 24, 48, and 72 h post-injection from the metabolic box. The collected urine samples were centrifuged at 4,000 rpm for 15 min. The concentration of Gd(III), Zn(II), Cu(H), and Ca(II) in the supernatant of the urine samples was determined by ICP-OES after appropriate dilutions.

The nature of data set [2]: Relaxivity at 1.5T in water, 37° C. The class given is physicochemical. As to the method: Relaxivity is an important parameter for an MR contrast agent. It reflects how the relaxation rate of the surrounding water proton changes as a function of concentration, and it is directly associated with the agent's contrast enhancing capability during imaging. The relaxivity of the 4 contrast agents was tested at 37° C. in water and compared to Gd(HP-DO3A), Gd-DOTA and ZD2-Gd(HP-DO3A) (FIG. 26). […] Compared to Gd(HP-DO3A), Gd-DOTA, the size increase of the targeted contrast agents due to the peptides and PEG spacer could result in an increase of τR,^[42, 43] thus leading to higher relaxivities.

The next data set has as its system TGFβ induced 4T1 cells. Description: Binding of Cy5 probes to TGFβ induced 4T1 cells in vitro. As to conditions: cell culture. The class given is cell-based. As to the method:
As tumor cells produce EDB-FN to promote its migration, we further validated if Cy5 labeled l-ZD2 (l-ZD2-Cy5) can bind to TGFβ induced 4T1 cells in vitro. […] To explain this, we hypothesize that in this form of cell culture, no clot formation can take action to provide binding sites for CREKA-Cy5. To validate our hypothesis, we further produced a 3D culture system that mimics the “soil” of metastatic tumor. In the 3D culture system, 4T1 cells were cultured in a microenvironment containing TGFβ, collagen, and fibrin. […] In overall, these evidences point to the conclusion that the use of EDB-FN for targeting micrometastasis may be advantageous compared with Fibronectin-Fibrin complexes in that EDB-FN appears earlier than Fibronectin-Fibrin in the pre-metastatic niche.

Another data set has as its target EDB fragment (Homo sapiens, UniProt P02751). In words: Peptide ELISA of HRP-conjugated peptides on coated EDB. As to conditions: HRP conjugates. The class given is binding. As to the method: A linear version of ZD2 (CTVRTSADA) SEQ ID NO: 42 was synthesized so that sulfhydryl group on cysteine could be used for conjugation with maleimide-activated […] (Sigma-Aldrich). Conjugation was carried out as instructed in the manual. The product of conjugation, ZD2-HRP, was used for peptide ELISA assay after coating a 96-well plate with purified EDB. 0.5% BSA in PBS was used to block non-specific binding for later steps. 0.39 μM to 50 μM of ZD2-HRP was incubated with coated EDB for an hour followed by extensive washing with TBST (0.1%). ABTS substrate was added subsequently and allowed to react for 30 min before the absorbance of solution in each well were measured at 415 nm. Non-coated wells added with ABTS were used as blank.
Cyclic ZD2 peptide (CTVRTSADC) (SEQ ID NO: 10) was synthesized using standard solid phase peptide chemistry and was characterized by MALDI-TOF mass spectrometry (FIG. 1C). The peptide was then labeled with a fluorescence chromophore cyanine 5 (Cy5) through a short PEG linker (NH2—(CH2CH2O)—CH2CH2COOH) to give a peptide fluorescence probe ZD2-Cy5. The peptide was also conjugated to peroxidase (ZD2-HRP) and the binding affinity of the peptide to EDB fragment was determined using peptide ELISA assay.
Similarly, CERAK-HRP is synthesized as a control.

For data set [3], the system named is LNCaP prostate tumor xenografts. Description: In vivo T1-weighted MRI at 7T, LNCaP tumors. The arrangement: species or system mouse. As to conditions: 0.1 mmol/kg i.v., up to 30 min, 7T. As to the method: (§1) All MRI experiments were performed on a horizontal 7T Bruker scanner (Bruker Biospin Co., Billerica, Mass.). Imaging experiments were performed when the tumor size reached 5-8 mm in diameter. ZD2-Gd(HP-DO3A) was administered intravenously at the dose of 0.1 mmol/kg after acquiring pre-contrast images. Post-contrast images were obtained at 10 min interval up to 30 min. The axial slices of mouse at the tumor location were acquired using T1-weighted spin echo sequence with the following parameters: field of view (FOV): 3 cm; slice thickness: 1.2 mm; interslice distance: 1.2 mm; TR: 500 ms, TE: 8.1 ms; flip angle: 90°; average: 2; matrix size: 128×128. Contrast-to-noise ratio (CNR) at each time point was calculated by subtraction of the average signal intensity in the tumor and muscle, divided by the standard deviation of image noise. ProHance® (gadoteridol) was used as a control in the imaging experiments.

For data set [4], the system named is PC3 prostate tumor xenografts. In words: In vivo T1-weighted MRI at 7T, PC3 tumors. Also on record: species or system mouse. How it is done:
as §1

Data set [5] concerns TGFβ1-induced PC3 cancer cells. In words: In vitro cellular binding, confocal microscopy. The class given is cell-based, human. How it is done:
PC3 cell line was purchased from American Type Culture Collection (ATCC, Manassas, Va., USA), and maintained in RPMI/10% FBS medium. The cells were transfected with lentivirus to express green fluorescent protein (GFP) at least 48 h prior to harvesting. To induce EMT, PC3 cells were cultured in the presence of TGFβ1 (5 ng/ml) for 5 days. For in vitro binding assay, nuclei of cells were stained with Hoechst 33342 (Life Technologies, Brooklyn, N.Y., USA) 24 h prior to adding 500 nM ZD2-Cy5. Cells were maintained in medium containing ZD2-Cy5 for 24 h and monitored with confocal microscopy. Intense shaking was avoided for live-cell binding study to retain secreted EDB-FN on the glass.

The subject of data set [6] is human prostate tumor sections. Description: Histological staining of human prostate sections. From the text:
Human prostate sections were acquired from OriGene (Rockville, Md., USA). Antibodies used in this study include mouse monoclonal anti-Fibronectin antibody (BC-1, ab154210, Abcam, Cambridge, UK), Rhodamine-Red-X conjugated goat polyclonal anti-rabbit IgG (H+L) (Jackson Immuno Research Lab. West Grove, Pa., USA), and FITC conjugated goat polyclonal anti-mouse Fc (ab97264, Abcam). Frozen tissue section ([…]) imbedded in OCT was used for immunostaining and peptide staining. Paraffin embedded samples were de-paraffinized and processed with antigen retrieval using general methods. Sections were permeabilized and fixed with cold acetone followed by 0.5% BSA blocking for 1 hr at room temperature. Peptide staining was carried at the concentration of 5 uM. Slides were counter-stained with DAPI and mounted with coverslip using Prolong Gold regent (Invitrogen) before imaging. Stained tissue was imaged on an Olympus FV1000 confocal laser scanning microscope. GFP was observed using […] and the emission wavelength was read from 480 to 495 nm and represented as green. DAPI was observed using 405 nm laser and the emission wavelength was read from 450 to 470 nm and expressed as blue. Cy5.0 was observed using 635 nm laser and the emission wavelength was read from 655 to 755 nm and expressed as red.

In data set [7] the test system is PC3-GFP flank tumor xenografts.
Method: NIH athymic male nude mice, age 4-5 weeks, were maintained at the Athymic Animal Core Facility at Case Western Reserve University according to the animal protocols approved by the Institutional Animal Care and Use Committee (IACUC). For whole-body fluorescent imaging study, a flank tumor model was constructed. Each mouse was subcutaneously implanted in both flanks with 2×10^6 PC3-GFP cells mixed with an equal volume of in a mixture of PBS (50 μL culture medium and 50 μL PBS). Two to three weeks after inoculation, tumors reached an average size of 0.5 cm in diameter. The mice were used for imaging with Maestro FLEX In vivo Imaging System (Cambridge Research & Instrumentation, Inc. Woburn, Mass., USA) to monitor the targeting effect of ZD2 from 0 to 24 hours. Mice were intravenously injected with ZD2-Cy5 or CERAK-Cy5 (0.3 μmol/kg body weight). After 5 h, the mice were sacrificed and the tumor and various organs were imaged with the Maestro FLEX In vivo Imaging System.

“Also recorded” adds a separate entry of the source. Bridges are numbered along the chain shown (N, C = ends). Where no end group is shown, it is not given here.

Chain of EDB fragment (P02751 1271-1359 limits assumed): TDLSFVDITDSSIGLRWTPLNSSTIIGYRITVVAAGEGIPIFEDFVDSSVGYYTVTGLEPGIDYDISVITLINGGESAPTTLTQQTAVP

With `CNC(=O)CN(CCN(CCN(CC(=O)[O-])CC(=O)NC)CC(=O)[O-])CC(=O)[O-].[Gd+3]` [Omniscan, reference compound], in data set [1], the “urine concentration of endogenous metal ions post-injection vs pre-injection” value is given as “significant increase in Zn(II) concentration”.

In data set [2], “IGK-(Gd-DOTA): IGK peptide, PEG spacer, p-NCS-Bz-DOTA-GA, Gd complex (IGKTNTL; also: PEG spacer, p-NCS-Bz-DOTA-GA, Gd complex)” registered a r1 of 4.6 mM⁻¹ s⁻¹.

Take “CREKA-Cy5: Cy5 probe of CREKA peptide, targets fibronectin-fibrin complexes (also: Cy5 conjugate) [reference compound]”: the “binding to induced 4T1 cells” value with TGFβ induced 4T1 cells was “no binding”.

For “GVK-(Gd-DOTA): GVK peptide, PEG spacer, p-NCS-Bz-DOTA-GA, Gd complex (GVKSYNE; also: PEG spacer, p-NCS-Bz-DOTA-GA, Gd complex)”, in data set [2], the r1 worked out at 4.3 mM⁻¹ s⁻¹.

Compound `O=C([O-])CN1CCN(CC(=O)[O-])CCN(CC(=O)O)CCN(CC(=O)[O-])CC1.[Gd+3]` [Gd-DOTA, reference compound] registered a r1 in data set [2] of 2.9 mM⁻¹ s⁻¹.

Consider “CERAK-HRP: control peptide CERAK conjugated to HRP (also: conjugated to HRP) [reference compound]”, for which the “binding to EDB protein” value in the data set with EDB fragment is “no observable binding”.

For “CREKA-Gd(HP-DO3A): fibrin-FN clot targeting contrast agent, CREKA (Cys-Arg-Glu-Lys-Ala) conjugated to Gd(HP-DO3A) (also: conjugated to Gd(HP-DO3A) (Gd complex)) [reference compound]”, the “signal enhancement in LNCaP tumors” value in [3] was “significant contrast enhancement in the periphery”. Besides, the “signal enhancement in PC3 tumors” value in data set [4] (0.1 mmol/kg i.v., up to 30 min, 7T) is listed as “significant contrast enhancement in the periphery”. In data set [4] (mouse, in vivo), the “difference in signal enhancement between the PC3 and LNCaP tumors” value is given as “no significant difference”.

For “ZD2-Cy5: cyclic ZD2 (CTVRTSADC) labeled with Cy5 through a short PEG linker (CTVRTSADC-OH; disulfide 1-9 (inferred); not fully specified (N-terminus))”, the “binding to the periphery of PC3 cells” value in data set [5] (TGFβ1-induced (post-EMT) PC3 cells, vs untreated cells) was “substantially more binding; also recorded: strong binding”. For the same compound, the “binding to PC3 cells” value in data set [5] (uninduced cells) is “non-binding”. Moreover, in data set [6] (5 uM), the “staining of normal glands / BPH sections” value was “unstained”. Also, the “tumor binding after blocking sections with BC-1” value in data set [6] (competitive staining) is on record as “inhibited”. In [6] (high Gleason score (GS7, GS9), 5 uM), the “staining of human prostate tumor sections” value was “strong staining; also recorded: strong binding”. Moreover, the “accumulation in tumor, whole-body fluorescence imaging” value in [7] (1.5 h after intravenous injection) was “significantly high accumulation”. The “tumor accumulation, ex vivo Cy5 signal of tumor and organs” value in data set [7] (5 hours after injection) was “specific accumulation”. The “tumor to normal (T/N) ratio of Cy5 signal” value in [7] (maintained for up to 24 hours, compared with CERAK-Cy5) is recorded as “Relatively high”. Besides, the “accumulation in the liver or lung” value in data set [7] (mouse, in vivo) is reported as “Little accumulation”.

In [2], “ZD2-(Gd-DOTA): ZD2 peptide, PEG spacer, p-NCS-Bz-DOTA-GA, Gd complex (TVRTSAD; also: PEG spacer, p-NCS-Bz-DOTA-GA, Gd complex; listed as Homo sapiens)” yielded a r1 of 4.1 mM⁻¹ s⁻¹.
